Columns and labels:
LT-HSC:TMRM^low cells [1] = settings: 100 LT-HSC:TMRM^low cells, two days differentiation conditions with FCCP
Procedure: (§1) HSCs were cultured under ‘expansion’ conditions in U-bottom 96-well plates for five days. Cultures were maintained in Stemline II (Sigma) supplemented with 10 μg/ml Heparin (Sigma), 100 ng/ml SCF (R&D Systems), 2 ng/ml Flt3 ligand (R&D), 20 ng/ml TPO (R&D Systems), 10 ng/ml FGF-1 (Invitrogen), 500 ng/ml IGFBP2 (R&D Systems), 100 ng/ml AngL-3 (R&D Systems). At the end of the culture period cells were stained with TMRM and analyzed or sorted by flow cytometry. To induce differentiation, HSCs were cultured in basal medium (Stemline II containing 100 ng/ml SCF and 2 ng/ml Flt3 ligand) supplemented with 20 ng/ml IL-3 (R&D Systems) and 100 ng/ml IL-6 (R&D Systems).
(§2) In a first series of experiments, quantitative clonal differentiation assays (short- and long-term colony forming unit (CFU) assays as described above) were used to test to which extent mitochondrial uncoupling could influence the colony forming behavior and efficiency of hematopoietic stem and progenitor cells (FIG. 4A-C).
(§3) For some experiments, 5 or 10 μM Carbonyl cyanide 4-(trifluoromethoxy) phenylhydrazone (FCCP) (Sigma) was added at the medium. FCCP stock solution was prepared by dissolving the powder in ethanol at 10 mM concentration.

whole bone marrow cells = settings: differentiation conditions, two days with FCCP
Procedure: as §1, §2, §3

HSCs = settings: CFSE labeling, culture with FCCP
Procedure: Freshly sorted LT-HSCs were incubated for 20 min at 37° C. with 1:400 CFSE stock solution (Cayman chemicals; CFSE cell division assay kit). The cells were pelleted and re-suspended in 1 ml of Stemline II (Sigma) containing 10% FBS for 20 min at 37° C. Thereafter, the cells were washed twice with 1 ml of Stemline II (Sigma) and put in culture.

cultured HSCs = settings: flow cytometry
Procedure: NADH autofluorescence was measured by flow cytometry with UV laser (ex: 350 nm, em: 460 nm).
Specifically, culture conditions that would rapidly differentiate HSCs into highly proliferative MPPs were chosen and the effect of blocking the establishment of ΔΨm on the maintenance of stemness was investigated. For that purpose, trifluorocarbonylcyanide phenylhydrazone (FCCP) which permeabilizes the inner mitochondrial membrane and disrupts its potential was used as an uncoupling agent of the electron transport from ATP generation.
LT-HSC:TMRM^low cells [2] = settings: five days differentiation condition (SCF, Flt3, IL-3, IL-6), 5 μM FCCP, progeny transplanted
Procedure: 100 LT-HSC:TMRM^low cells were cultured for five days under differentiation-inducing conditions in the presence or absence of 5 μM FCCP. Cell progeny were transplanted in lethally irradiated recipient mice together with 2*10^6 helper cells. Peripheral blood was collected at 4, 8 and 12 and 16 weeks to determine the level of chimerism as described above.
For transplants of HSC cultured exposed to the uncoupler FCCP, 100 LT-HSC:TMRM^low cells were cultured for five days under differentiation-inducing conditions in the presence or absence of 5 μM FCCP. Cell progeny were transplanted in lethally irradiated recipient mice together with 2*10^6 helper cells. Peripheral blood was collected at 4, 8 and 12 weeks to determine the level of chimerism.

[3] = tested on: hematopoietic stem and progenitor pool sizes in the bone marrow; test: Flow cytometry analysis of hematopoietic stem and progenitor pool sizes in bone marrow of mice fed the agent; type: in vivo, mouse; settings: 1 week treatment through the food, flow cytometry
Procedure: Bone marrow (BM) cells were isolated from C57Bl/6J and C57Bl/6J Ly5.1 from crushed femora and tibia. Flow cytometry analysis of hematopoietic stem and progenitor cells was performed on freshly isolated bone marrow (BM). Cell suspensions were filtered through a 70 μm cell strainer and erythroid cells were eliminated by incubation with red blood cells lysis buffer (eBioscences). Lineage-positive cells were removed with a magnetic lineage depletion kit (Miltenyi Biotech). Cell suspensions were stained with a panel of specific antibodies for stem and progenitor cells and analyzed or FACS-sorted respectively on a BD LSRII and BD FACS Aria II.
C57Bl/6J and C57Bl/6J Ly5.1 were purchased from Charles River Laboratories International and maintained in micro-isolator cages. Mice were provided continuously with sterile food, water and bedding. Nicotinamide riboside (NR) (custom synthesized as triflate salt by Novalix in Strasbourg) was supplied in the food at 0.4 g/Kg mouse and mice were treated for 1 and 4 weeks respectively.

[4] = tested on: HSC mitochondrial activity; test: In vivo assay of HSC mitochondrial activity: TMRM flow cytometry of freshly isolated HSC from mice fed the compounds; parameters: species or system mouse; settings: mice fed with the compounds
Description: The effect of agents on HSC mitochondrial activity has been assessed by measuring mitochondrial activity in vivo: freshly isolated HSC from mice fed with the compounds were stained by TMRM and analyzed by flow cytometry.

[5] = Konieczna et al., 2013; cited from earlier work

Row | SMILES | colonies derived from the most primitive cells (CFU-GEMM) (LT-HSC:TMRM^low cells [1]) | frequency of colonies derived from the more committed progenitors (Mk, G, M and GM) (LT-HSC:TMRM^low cells [1]) | total number of colonies (whole bone marrow cells; 15'000 whole bone marrow cells) | percentage of clonogenic multi-lineage colonies (CFU-GEMMs) (whole bone marrow cells; whole bone marrow cells) | percentage of colonies derived from more committed progenitors (M, GM) (whole bone marrow cells; whole bone marrow cells) | divisional history (induction of quiescence) (HSCs) | NADH levels (cultured HSCs) | long-term multilineage blood reconstitution in recipient mice (LT-HSC:TMRM^low cells [2]) | hematopoietic stem and progenitor compartments in BM [3] | ability to reduce mitochondrial membrane potential in HSCs [4] | platelet levels in mice [5]
1 | N#CC(C#N)=NNc1ccc(OC(F)(F)F)cc1 [FCCP, Carbonyl cyanide 4-(trifluoromethoxy)phenylhydrazone] | concomitant increase | striking decrease in the frequency of colonies | striking decrease in the total number of colonies | increase in the percentage of clonogenic multi-lineage colonies | markedly decreased | all cells in culture are rapidly dividing several times | decreased NADH levels | dramatically higher levels of long-term multilineage blood reconstitution |  |  | 
2 | NC(=O)c1cccnc1 [NAM, Nicotinamide] |  |  |  |  |  |  |  |  | did not show significant expansion | not able to significantly reduce mitochondrial membrane potential in HSCs | did not increase the platelet levels

From patent US20170252362A1, “METHODS & COMPOUNDS USEFUL IN HEMATOPOIETIC STEM CELL MEDICINE” (ECOLE POLYTECHNIQUE FEDERALE DE LAUSANNE (EPFL), priority 2014, published 2017)
